Assay results from patent US20080119462A1, “METHOD FOR TREATING VASCULAR HYPERPERMEABLE DISEASE” (Sucampo AG, priority 2003, published 2008).

Experiments:
[1] = test system: retinal VEGF; assay: Retinal VEGF level in STZ diabetic rats (Murine VEGF ELISA kit); type: in vivo, rat; conditions: 0.1 mg/kg, sc, u.i.d.
Protocol: STZ diabetic rats were prepared in the same manner as in Example 2. Compound A (0.1 mg/kg, sc, u.i.d.) was administered from 3 days to 8 weeks after the STZ administration. To the normal group and STZ control group, a vehicle was treated. At 8 weeks from the STZ administration, the retina was removed from the animals and the retinal VEGF level was determined using a Murine VEGF ELISA kit.

[2] = molecular target: T1, plasma SSAO (Rattus norvegicus, UniProt O08590); assay: Plasma SSAO activity in STZ diabetic rats after treatment; type: in vivo
T1 construct: The enzyme suspension prepared from blood plasma was pre-incubated with Compound A; from tissue; host or cells: rat blood plasma
T1 sequence (O08590 27-763 limits assumed): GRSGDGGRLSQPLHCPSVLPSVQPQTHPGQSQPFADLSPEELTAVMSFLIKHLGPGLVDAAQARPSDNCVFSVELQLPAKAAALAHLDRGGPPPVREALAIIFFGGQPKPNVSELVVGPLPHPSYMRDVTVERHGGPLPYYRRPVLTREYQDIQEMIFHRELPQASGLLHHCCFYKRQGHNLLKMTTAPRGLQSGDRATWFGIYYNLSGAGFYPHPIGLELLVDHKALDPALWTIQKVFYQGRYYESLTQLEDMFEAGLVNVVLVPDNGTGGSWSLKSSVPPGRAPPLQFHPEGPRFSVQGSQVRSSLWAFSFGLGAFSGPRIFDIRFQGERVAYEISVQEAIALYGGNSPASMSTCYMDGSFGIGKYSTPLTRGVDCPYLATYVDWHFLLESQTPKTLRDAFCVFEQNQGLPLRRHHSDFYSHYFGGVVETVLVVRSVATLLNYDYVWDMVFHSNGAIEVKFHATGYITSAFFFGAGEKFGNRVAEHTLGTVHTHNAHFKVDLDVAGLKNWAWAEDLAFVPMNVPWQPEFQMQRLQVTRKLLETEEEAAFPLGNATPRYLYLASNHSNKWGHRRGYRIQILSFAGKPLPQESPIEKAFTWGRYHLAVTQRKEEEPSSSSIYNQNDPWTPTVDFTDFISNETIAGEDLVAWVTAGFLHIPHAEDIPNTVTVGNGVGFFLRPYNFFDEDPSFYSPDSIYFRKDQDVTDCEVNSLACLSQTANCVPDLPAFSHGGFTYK
Protocol: Diabetes in rats was induced with an intraperitoneal (i.p.) injection of 65 mg/ml/kg of streptozotocin (STZ) in 2 mmol/l citrate buffer (pH 4.5) after a 20-h fast. At the same time control rats were injected with an equal volume of 2 mmol/l citrate buffer. Plasma glucose level was checked by a calorimetric method. At day 3 of STZ treatment, the rats were diagnosed with diabetes showing a plasma glucose level of 350 mg/dl.
The treatment of Compound A was given daily from 2 weeks after STZ treatment for 2 weeks. At 24 hrs after final treatment of Compound A, the vascular permeability in oculus was investigated based on the leakage of dye into the vitreous 30 min after intravenous injection of fluorescein solution (40 mg/ml/kg). Permeability was expressed as vitreous/plasma ratio of fluorescein concentration measured by a fluorophotometer. At the same time, the plasma SSAO activity was checked by the radiochemical-enzyme assay using ^14C-benzylamine (2×10^−5 mol/l final concentration) as substrate.

[3] = molecular target: T2, Rat plasma SSAO (Rattus norvegicus, UniProt O08590); assay: Radiochemical-enzyme assay of VAP-1 enzyme (SSAO) activity with 14C-benzylamine, rat plasma; type: biochemical
T2 construct: The enzyme suspension prepared from blood plasma was pre-incubated with Compound A; from tissue; host or cells: rat blood plasma
T2 sequence (O08590 27-763 limits assumed): T1 sequence (O08590 27-763 limits assumed)
Protocol: (§1) VAP-1 enzyme (SSAO) activity in both human and rat plasma was determined by a radiochemical-enzyme assay using ^14C-benzylamine as artificial substrate. The enzyme suspension prepared from blood plasma was pre-incubated with Compound A in 96-well microplate at room temperature for 30 min. The enzyme suspension was then incubated with ^14C-benzylamine (2×10^−5 mol/l final concentration) in a final volume of 50 μl at 37° C. for 1 hour. The enzyme reaction was terminated by adding 2 mol/l (50 μl) citric acid. The oxidized products were directly extracted into a 200 μl toluene scintillator, and its radioactivity was measured by a scintillation spectrometer. Monoamine oxidase (MAO) and diamine oxidase (DAO, histaminase) activities were also determined by similar method using ^14C-phenylethylamine and ^14C-putrescine as substrate, respectively. Cloned DAO from cDNA libraries was used in human DAO assay. Inhibition activity was expressed as IC50 (μmol/l) value.

[4] = molecular target: T3, Human platelet MAO (Homo sapiens, UniProt P27338); assay: Monoamine oxidase (MAO) activity assay with 14C-phenylethylamine; type: biochemical
T3 construct: human platelet MAO; from tissue; host or cells: human platelets
T3 sequence (P27338 1-520): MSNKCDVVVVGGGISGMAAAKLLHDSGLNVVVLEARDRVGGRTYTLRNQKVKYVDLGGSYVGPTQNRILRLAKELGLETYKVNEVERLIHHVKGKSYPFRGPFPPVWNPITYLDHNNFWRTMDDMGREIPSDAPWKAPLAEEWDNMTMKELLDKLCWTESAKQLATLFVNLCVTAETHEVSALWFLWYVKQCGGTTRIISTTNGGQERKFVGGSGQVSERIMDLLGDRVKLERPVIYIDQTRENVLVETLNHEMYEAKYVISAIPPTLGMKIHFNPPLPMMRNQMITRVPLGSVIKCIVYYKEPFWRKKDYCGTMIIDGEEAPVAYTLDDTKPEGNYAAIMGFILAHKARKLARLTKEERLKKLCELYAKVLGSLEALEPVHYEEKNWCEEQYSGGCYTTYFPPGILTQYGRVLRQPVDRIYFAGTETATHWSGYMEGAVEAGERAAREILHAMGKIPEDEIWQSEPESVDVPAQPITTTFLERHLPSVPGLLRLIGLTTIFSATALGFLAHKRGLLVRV
Protocol: as §1

Q: Which results are given for `CC(=O)Nc1nc(CCc2ccc(NC(=N)N)cc2)cs1` [Compound A, N-{4-[2-(4-{[amino(imino)methyl]amino}phenyl)ethyl]-1,3-thiazol-2-yl}acetamide]?
A: Effect on the increased retinal VEGF level in STZ diabetic rats (in words) ([1]; 3 days to 8 weeks after STZ): completely inhibited; Retinal VEGF level ([1]; STZ diabetic rats, from 3 days to 8 weeks after STZ, mean ± S.E.M., 10 rats): 28.3 ± 2.72 pg/mg protein; Effect on the increased plasma SSAO activity in diabetic rats (in words) ([2]; 4 weeks after STZ treatment): dose-dependent inhibition; Plasma SSAO activity ([2]; STZ diabetic rats, 4 weeks after STZ, Compound A treatment daily from 2 weeks after STZ, mean ± S.E.M., 10 rats): 2.51 ± 0.26 pmol/min/mL; Inhibition of the enzyme activity of rat plasma SSAO (in words) [3]: completely inhibited; IC50 ([3]; 30 min pre-incubation, 14C-benzylamine 2×10^−5 mol/l, 37° C., 1 hour, read-out: Inhibitory effect (IC50 values) Rat plasma SSAO): 12 nM; Inhibition of the enzyme activity of human platelet MAO (in words) [4]: not; IC50 ([4]; 14C-phenylethylamine as substrate, read-out: Inhibitory effect (IC50 values) Human platelet MAO): > 100000 nM
